The values below come from PubChem BioAssay AID212 (DTP/NCI, 2004).

The structures appear in SMILES notation. Values joined by “and” are separate entries in the source; they are usually repeats but may differ in a detail not shown here. Identical values can stand only once. Results filed as inconclusive are left out.

In the assay the test system is BDF1 mice, colon carcinoma 38 sc, T/C %. Briefly: NCI In Vivo Anticancer Drug Screen. Data for tumor model Colon Carcinoma 38 (subcutaneous) in B6D2F1 (BDF1) mice. As to conditions: endpoint: median tumor weight (est.), higher = larger tumour. The method in brief:
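T/C readout: treated group (T) measurement over vehicle control group (C) measurement. Endpoint is survival or tumor size in mice bearing a transplanted tumor.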

Where [1] appears, read: dose: 50.0 mg/kg/injection, schedule: Q07DX002 (ip), vehicle: Klucel (hydroxypropylcellulose) (HPC).
[2] abbreviates: dose: 12.5 mg/kg/injection, schedule: Q07DX002 (ip), vehicle: saline with Tween-80.
Setting [3] is: dose: 12.5 mg/kg/injection, schedule: Q07DX002 (ip), vehicle: saline.
[4] abbreviates: dose: 25.0 mg/kg/injection, schedule: Q07DX002 (ip), vehicle: saline with Tween-80.
The mark [5] stands for this setting: dose: 50.0 mg/kg/injection, schedule: Q07DX002 (ip), vehicle: saline with Tween-80.
The mark [6] stands for this setting: dose: 100.0 mg/kg/injection, schedule: Q07DX002 (ip), vehicle: saline with Tween-80.

In the case of `ClCCN(CCCl)c1ccc(/C=C/c2ccccc2)cc1`, the T/C under setting [1] was 71 % of control; the T/C (dose: 100.0 mg/kg/injection, schedule: Q07DX002 (ip), vehicle: Klucel (hydroxypropylcellulose) (HPC)) was 116 % of control; the T/C (dose: 200.0 mg/kg/injection, schedule: Q07DX002 (ip), vehicle: Klucel (hydroxypropylcellulose) (HPC)) is 72 % of control; the T/C (dose: 400.0 mg/kg/injection, schedule: Q07DX002 (ip), vehicle: Klucel (hydroxypropylcellulose) (HPC)) was 71 % of control; the T/C (dose: 800.0 mg/kg/injection, schedule: Q07DX002 (ip), vehicle: Klucel (hydroxypropylcellulose) (HPC)) was 79 % of control.

Consider `COC(=O)C(F)C(Br)C(=O)OC` (stereo unspecified), for which the T/C by setting is: (dose: 6.25 mg/kg/injection, schedule: Q07DX002 (ip), vehicle: saline with Tween-80) 95 % of control and 99 % of control; under setting [2], 63 % of control.

For the molecule `N=C(N)SCc1c2ccccc2c(CSC(=N)N)c2ccccc12`, the T/C was 63 % of control (dose: 6.25 mg/kg/injection, schedule: Q07DX002 (ip), vehicle: suspension in saline); 93 % of control and 100 % of control under setting [3]; 92 % of control (dose: 12.5 mg/kg/injection, schedule: Q07DX002 (ip), vehicle: suspension in saline); 83 % of control (dose: 25.0 mg/kg/injection, schedule: Q07DX002 (ip), vehicle: suspension in saline); 71 % of control and 89 % of control (dose: 50.0 mg/kg/injection, schedule: Q07DX002 (ip), vehicle: saline); 64 % of control (dose: 50.0 mg/kg/injection, schedule: Q07DX002 (ip), vehicle: suspension in saline). Besides, the T/C is 115 % of control (dose: 100.0 mg/kg/injection, schedule: Q07DX002 (ip), vehicle: suspension in saline) and 97 % of control (dose: 200.0 mg/kg/injection, schedule: Q07DX002 (ip), vehicle: suspension in saline).

As to `O=C(O)Cc1cccc2c(=O)c(-c3ccccc3)c(-c3ccccc3)oc12`, the T/C by setting is: (dose: 25.0 mg/kg/injection, schedule: Q07DX002 (ip), vehicle: Klucel (hydroxypropylcellulose) (HPC)) 90 % of control; under setting [1], 92 % of control.

As for `COc1cc(Cl)ccc1C`, the T/C reads like this: under setting [2], 99 % of control; under setting [4], 71 % of control; under setting [5], 68 % of control; under setting [6], 82 % of control; (dose: 200.0 mg/kg/injection, schedule: Q07DX002 (ip), vehicle: saline with Tween-80) 89 % of control; (dose: 400.0 mg/kg/injection, schedule: Q07DX002 (ip), vehicle: saline with Tween-80) 89 % of control.

As to `C=C/C(C)=C/[C@H](C)C(=O)C[C@H](O)CC1CC(=O)NC(=O)C1`, the T/C was 111 % of control under setting [2], 102 % of control under setting [4], 89 % of control under setting [5] and 102 % of control under setting [6].

Take `COC1C=CC23c4cc5c(cc4C(O)OC2CN(C)C3C1)OCO5` (stereo unspecified): the T/C (dose: 18.75 mg/kg/injection, schedule: Q07DX002 (ip), vehicle: suspension in saline) was 91 % of control; the T/C (dose: 37.5 mg/kg/injection, schedule: Q07DX002 (ip), vehicle: suspension in saline) was 82 % of control; the T/C (dose: 75.0 mg/kg/injection, schedule: Q07DX002 (ip), vehicle: suspension in saline) is 105 % of control.

As for `CC1=CC2C(O)(CC(CO)=CC3C4C(C)(C)C4(OC(=O)c4ccccc4)C(OC(=O)c4ccccc4)C(C)C32O)C1=O` (stereo unspecified), the T/C (dose: 0.5 mg/kg/injection, schedule: Q07DX002 (ip), vehicle: saline with Tween-80) is 156 % of control and the T/C (dose: 2.0 mg/kg/injection, schedule: Q07DX002 (ip), vehicle: saline with Tween-80) was 167 % of control.

For the molecule `CC(=O)NCCCCCCNC(C)=O`, the T/C by setting is: (dose: 100.0 mg/kg/injection, schedule: Q07DX002 (ip), vehicle: saline) 77 % of control; (dose: 200.0 mg/kg/injection, schedule: Q07DX002 (ip), vehicle: saline) 66 % of control and 81 % of control; (dose: 400.0 mg/kg/injection, schedule: Q07DX002 (ip), vehicle: saline) 108 % of control; (dose: 1600.0 mg/kg/injection, schedule: Q07DX002 (ip), vehicle: saline) 90 % of control and 91 % of control.

Turning to `O=c1[nH]c(=O)n(C2OC(CO)C(O)C2O)cc1F` (stereo unspecified), the T/C was 121 % of control (dose: 3.12 mg/kg/injection, schedule: Q07DX002 (ip), vehicle: saline); 106 % of control (dose: 6.25 mg/kg/injection, schedule: Q07DX002 (ip), vehicle: saline); 64 % of control under setting [3].

As for `COc1cc(C)c2c(c1C=O)Oc1c(c(C)c(O)c3c1C(O)OC3=O)OC2=O` (stereo unspecified), the T/C by setting is: (dose: 3.12 mg/kg/injection, schedule: Q07DX003 (ip), vehicle: suspension in saline) 93 % of control; (dose: 6.25 mg/kg/injection, schedule: Q07DX003 (ip), vehicle: suspension in saline) 60 % of control; (dose: 12.5 mg/kg/injection, schedule: Q07DX003 (ip), vehicle: suspension in saline) 65 % of control; (dose: 25.0 mg/kg/injection, schedule: Q07DX003 (ip), vehicle: suspension in saline) 93 % of control; (dose: 50.0 mg/kg/injection, schedule: Q07DX003 (ip), vehicle: suspension in saline) 87 % of control.

In the case of `COC(=O)C[C@](O)(CCCC(C)(C)O)C(=O)O[C@@H]1C(OC)=C[C@]23CCCN2CCc2cc4c(cc2[C@H]13)OCO4`, the T/C (dose: 0.25 mg/kg/injection, schedule: Q07DX003 (ip), vehicle: saline) is 93 % of control; the T/C (dose: 0.5 mg/kg/injection, schedule: Q07DX003 (ip), vehicle: saline) is 95 % of control; the T/C (dose: 1.0 mg/kg/injection, schedule: Q07DX003 (ip), vehicle: saline) is 64 % of control; the T/C (dose: 2.0 mg/kg/injection, schedule: Q07DX003 (ip), vehicle: saline) is 53 % of control.

Regarding `CCC(C)C(=O)O[C@H]1C(=O)O[C@@H]2C[C@H]3C(C)=CC(=O)[C@@H](O)[C@]3(C)[C@H]3[C@@H](O)[C@H](O)[C@@]4(C)OC[C@]32[C@@H]14` (stereo partly specified), the T/C is 45 % of control (dose: 1.25 mg/kg/injection, schedule: Q07DX002 (ip), vehicle: saline + alcohol); 27 % of control and 50 % of control (dose: 5.0 mg/kg/injection, schedule: Q07DX002 (ip), vehicle: saline + alcohol).

`CC(C)CCCCCCCCCCCCC(=O)NCC(=O)NC1C(O)C(O)C(Nc2ncnc3nc[nH]c23)OC1C(O)CO` (stereo unspecified): the T/C (dose: 0.13 mg/kg/injection, schedule: Q07DX002 (ip), vehicle: saline) is 110 % of control; the T/C (dose: 0.25 mg/kg/injection, schedule: Q07DX002 (ip), vehicle: saline) was 114 % of control; the T/C (dose: 1.0 mg/kg/injection, schedule: Q07DX002 (ip), vehicle: saline) is 71 % of control; the T/C (dose: 1.0 mg/kg/injection, schedule: Q07DX002 (ip), vehicle: suspension in saline) is 114 % of control; the T/C (dose: 2.0 mg/kg/injection, schedule: Q07DX002 (ip), vehicle: saline) is 87 % of control; the T/C (dose: 2.0 mg/kg/injection, schedule: Q07DX002 (ip), vehicle: suspension in saline) is 113 % of control. Also, the T/C is, setting by setting: (dose: 4.0 mg/kg/injection, schedule: Q07DX002 (ip), vehicle: saline) 76 % of control; (dose: 4.0 mg/kg/injection, schedule: Q07DX002 (ip), vehicle: suspension in saline) 42 % of control.

In the case of `CC(=O)OC1(C)CC(C)C(=O)C(C(O)CC2CC(=O)NC(=O)C2)C1` (stereo unspecified), the T/C is, setting by setting: (dose: 47.0 micrograms/kg/injection, schedule: Q07DX002 (ip), vehicle: saline) 106 % of control; (dose: 94.0 micrograms/kg/injection, schedule: Q07DX002 (ip), vehicle: saline) 123 % of control; (dose: 188.0 micrograms/kg/injection, schedule: Q07DX002 (ip), vehicle: saline) 116 % of control; (dose: 375.0 micrograms/kg/injection, schedule: Q07DX002 (ip), vehicle: saline) 117 % of control; (dose: 750.0 micrograms/kg/injection, schedule: Q07DX002 (ip), vehicle: saline) 101 % of control.

In the case of `Nc1ncnc2c1ccn2C1OC(CO)C(O)C1O` (stereo unspecified), the T/C was 110 % of control and 87 % of control (dose: 0.5 mg/kg/injection, schedule: Q07DX003 (ip), vehicle: Klucel (hydroxypropylcellulose) (HPC)); 74 % of control and 80 % of control (dose: 1.0 mg/kg/injection, schedule: Q07DX003 (ip), vehicle: Klucel (hydroxypropylcellulose) (HPC)); 84 % of control and 86 % of control (dose: 2.0 mg/kg/injection, schedule: Q07DX003 (ip), vehicle: Klucel (hydroxypropylcellulose) (HPC)).
